Assay results: patent publication US20240024403A1, “Compositions and Methods for Managing Weight” (Unigen, Inc., priority 2012, published 2024)
Like-named read-outs stand apart in the source and are kept apart here. Blank lines part the entries; values can stand above or below the compound they belong to.

Legend:
[1] = target: T1, human CB1 receptor (Homo sapiens (Human), UniProt P21554); test: CB1 receptor binding assay ([3H] SR141716A); settings: for inhibition at 20 µg/mL: read-out: % Inhibition CB1-Binding; for CB1 selectivity over CB2: from CB1 and CB2 IC50
Procedure: Cannabinoid receptor binding assays were used as a primary screening method to identify CB1 antagonist compounds. […] Briefly, human cannabinoid receptor protein bound to Chem-1 membrane was used in modified HEPES (pH 7.4) buffer. A 10 microgram (μg) aliquot of Chem-1 membrane, radioactively labeled [^3H] […] After incubation, the membranes were filtered and washed four times and then the filters were counted to determine amount of [^3H]

[2] = target: human cannabinoid CB2 receptor protein (Homo sapiens (Human), UniProt P34972); test: CB2 receptor-ligand binding assay ([3H] WIN-55,212-2)
Procedure: Briefly, human cannabinoid CB2 receptor protein expressed in CHO-K1 cells were used in modified HEPES buffer (pH 7.0). A 30 μg aliquot of CB2-membrane was mixed with tritium labeled nonspecific CB1 agonist [3H] WIN-55,212-2 (2.4 nM) and test samples of Kuwanon G and Albanin G compounds, or just the nonspecific ligand R (+)-WIN-55,212-2 (10 μM) (positive control) were incubated in incubation buffer (20 mM HEPES (pH 7.0), 0.5 mg/ml BSA) for 90 minutes at 37° C. After incubation, the membranes were filtered and washed; the filters were then counted to determine the amount of radiolabeled [^3H] WIN-55,212-2 that was specifically bound to the CB2-membrane.

[3] = system: Rice α-glucosidase; test: Rice α-Glucosidase inhibition assay; format: biochemical; settings: 100 μg/ml
Procedure: Inhibition of rice α-glucosidase activity by each of the purified Kuwanon G and Albanin G compounds was measured as follows. […] The reaction was initiated with addition of 2 mM p-nitrophenyl a-D-glucopyanoside, incubated for another 90 minute at 70° C., and then terminated by adding of 1 M sodium carbonate. The end-product p-nitrophenol was measured by spectrophotometer.

[4] = target: T1, human CB1 receptor; test: CB1 Antagonist Effect GPCR Functional Assay (cAMP); format: cell-based; settings: for inhibition at 100 µM: read-out: CB1 Antagonist Inhibition
Procedure: (§1) In vitro efficacy and CB1 binding specificity of compounds isolated from Morus alba and Milicia excelsa were tested in the human CB1 receptor binding assay, and the agonist or antagonist function of the compounds was determined by measuring the effect on cAMP or agonist-induced cAMP modulation.
(§2) Following 10 min incubation at 37° C., the cells are lysed and the fluorescence acceptor (D2-labeled cAMP) and fluorescence donor (anti-cAMP antibody labeled with europium cryptate) are added. After 60 min at room temperature, the fluorescence transfer is measured at λex=337 nm and λem=620 nm and 665 nm using a microplate reader (Rubystar, BMG). The cAMP concentration is determined by dividing the signal measured at 665 nm by that measured at 620 nm (ratio).

[5] = DPPH anti-oxidation test
Procedure: The DPPH radical has a violet color in solution, but changes to light yellow or colorless when reduced to DPPH-H (2,2-diphenyl-1-picrylhydrazin) after reaction with free radicals. The color change can be followed spectrophotometrically at 517 nm to determine the anti-oxidative potential of a composition. Briefly, a 0.2 mM solution of DPPH in DMSO was mixed with each test sample at concentrations of 20, 40, 80 and 160 μg/ml. Ascorbic acid was used as a positive control. After a 30 minute incubation in the dark, the color change (i.e., decrease in absorbance) was measured at 517 nm in a spectrophotometer.

[6] = system: 3T3-L1 adipocytes; test: Lipolysis (free glycerol released) in mature 3T3-L1 adipocytes; format: cell-based, Mouse; settings: 10 μM
Procedure: Isoproterenol (10 μM) was used as a positive control. The conditioned medium was recovered and free glycerol released was assayed by using a lipolysis assay kit (Sigma-Aldrich Inc., USA) following the manufacturer's instructions.

[7] = target: T1, human CB1 receptor; test: CB1 Agonist Effect GPCR Functional Assay (cAMP); format: cell-based
Procedure: as §1
as §2, with “Following a” for “Following”, “10 minute” for “10 min”, “cryptate) were” for “cryptate) are”

[8] = system: 3T3-L1 adipocytes; test: Lipid accumulation in 3T3-L1 adipocytes (Oil-Red O); format: cell-based, Mouse; settings: 10 ng/ml
Procedure: Briefly, 3T3 L1cells (American Type Culture Collection) were cultured in Dulbecco's modified Eagle's medium (DMEM) (GIBCO) containing 10% bovine calf serum until confluent. Two days post-confluence (DO), cells were stimulated to differentiate with DMEM containing 10% fetal bovine serum (FBS), 5 μg/ml insulin, 0.5 mM 3-isobutyl-1-methylxanthine (IBMX) and 1 μM dexamethasone for two days (D2).
Differentiated cells were then maintained in 10% FBS/DMEM medium with 5 μg/ml insulin for another two days (D4), followed by culturing with 10% FBS/DMEM medium for four days (D8).
To examine lipid accumulation, four different concentrations of Composition 3 (40, 80, 120 and 160 ug/ml) were tested with medium from Days 0 to 8 of adipogenesis. The culture medium was replaced every two days, and the cells were stained with Oil-Red O on Day 8.

[9] = system: 3T3-L1 cells; test: Intracellular triglyceride accumulation in differentiating 3T3-L1 cells; format: cell-based, Mouse; settings: 10 ng/ml; 8 days differentiation
Procedure: The cells were washed with PBS, scraped with homogenizing solution, residual cell lysate was centrifuged at 3,000 g for 5 minutes to remove fat layers, and the supernatants were assayed for triglyceride levels.

T1 sequence (P21554 whole entry): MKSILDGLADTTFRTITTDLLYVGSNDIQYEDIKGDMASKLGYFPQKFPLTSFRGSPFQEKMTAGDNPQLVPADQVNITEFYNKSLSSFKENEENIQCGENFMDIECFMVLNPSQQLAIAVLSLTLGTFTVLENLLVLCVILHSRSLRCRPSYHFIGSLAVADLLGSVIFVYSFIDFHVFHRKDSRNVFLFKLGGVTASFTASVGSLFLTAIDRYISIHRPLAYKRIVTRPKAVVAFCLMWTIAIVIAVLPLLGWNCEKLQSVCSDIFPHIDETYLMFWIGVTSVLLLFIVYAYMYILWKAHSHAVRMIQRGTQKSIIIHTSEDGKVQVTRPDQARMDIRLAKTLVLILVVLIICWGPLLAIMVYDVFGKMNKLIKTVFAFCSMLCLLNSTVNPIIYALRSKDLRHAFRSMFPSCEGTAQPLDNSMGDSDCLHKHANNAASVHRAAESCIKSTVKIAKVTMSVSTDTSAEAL
Sequence of human cannabinoid CB2 receptor protein (P34972 whole entry): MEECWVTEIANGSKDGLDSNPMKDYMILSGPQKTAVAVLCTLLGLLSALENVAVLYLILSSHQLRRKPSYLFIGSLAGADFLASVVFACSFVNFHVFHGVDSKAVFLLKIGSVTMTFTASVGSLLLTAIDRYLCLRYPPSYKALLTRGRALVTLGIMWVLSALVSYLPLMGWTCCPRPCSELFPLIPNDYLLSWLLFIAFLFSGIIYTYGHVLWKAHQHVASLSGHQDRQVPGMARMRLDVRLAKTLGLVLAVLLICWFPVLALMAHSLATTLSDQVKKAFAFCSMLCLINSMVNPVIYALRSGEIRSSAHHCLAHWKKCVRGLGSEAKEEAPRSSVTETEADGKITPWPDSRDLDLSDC

IC50 [1]: 0.1 µM
inhibition at 20 µg/mL ([1]; 20 μg/ml): 96%
CB1 selectivity over CB2 [1]: CB1 selective inhibitors
IC50 [2]: 6.6 µM
% Inhibition Rice α-glucosidase [3]: 66%
CB1 receptor functional behavior (antagonist) [4]: modest antagonist-like activity
inhibition at 100 µM ([4]; at 100 μM): 17%
Compound: CC(C)=CCc1c(O)ccc(C(=O)C2C(c3c(O)cc(O)c4c(=O)c(CC=C(C)C)c(-c5ccc(O)cc5O)oc34)C=C(C)CC2c2ccc(O)cc2O)c1O (centres unmarked) [Albanin G]

Compound: O=C1O[C@H]([C@@H](O)CO)C(O)=C1O [Ascorbic acid]
DPPH Inhibition (%) ([5]; 20 μg/ml): 50.8 ± 0.83%
DPPH Inhibition (%) ([5]; 40 μg/ml): 53.6 ± 1.72%
DPPH Inhibition (%) ([5]; 80 μg/ml): 64.2 ± 0.86%
DPPH Inhibition (%) ([5]; 160 μg/ml): 76.6 ± 0.30%

Compound: CC(C)NCC(O)c1ccc(O)c(O)c1 (centres unmarked) [Isoproterenol]
Lipolysis, % of Control ([6]; 24 hrs): 464.2 % of Control
Lipolysis, % of Control ([6]; 48 hrs): 525.0 % of Control

Compound: CC(C)=CCc1c(-c2ccc(O)cc2O)oc2c(C3C=C(C)CC(c4ccc(O)cc4O)C3C(=O)c3ccc(O)cc3O)c(O)cc(O)c2c1=O (centres unmarked) [Kuwanon G]
IC50 [1]: 10.1 µM
% Inhibition CB1-Binding ([1]; 20 μg/ml): 92%
CB1 selectivity over CB2 [1]: CB1 selective inhibitors
IC50 [2]: 28.9 µM
% Inhibition Rice α-glucosidase [3]: −22%
CB1 receptor functional behavior (agonist) [7]: agonist-like behavior instead of antagonist
EC50 [7]: 85 µM
CB1 Antagonist Inhibition ([4]; at 100 μM): −1%

Compound: CC(C)=CCC12Oc3c(c(O)cc(O)c3C3C=C(C)CC(c4ccc(O)cc4O)C3C(=O)c3ccc(O)cc3O)C(=O)C1(O)Oc1cc(O)ccc12 (centres unmarked) [Sanggenon, Sanggenon C/D/]
IC50 [1]: 3.5 µM
CB1 selectivity over CB2 [1]: CB1 selectivity over the CB2 receptor protein
inhibition at 20 µg/mL [1]: 96%
IC50 [2]: 24 µM
CB1 receptor functional behavior (agonist) [7]: agonist-like behavior instead of antagonist
EC50 [7]: 31 µM
inhibition at 100 µM [4]: -14%

Compound: TNF-α
Inhibition (%) of lipid accumulation ([8]; Table 159, Oil-Red O Day 8): 61.0%
Inhibition (%) of lipid accumulation ([8]; Table 160): 68.9%
Inhibition (%) of lipid accumulation ([8]; Table 161): 74.1 ± 6.06%
Inhibition (%) of intracellular triglyceride accumulation [9]: 19.4%
